Experimental data reported in the kinase profiling compilation of Christmann-Franck et al. (2016).

Molecular target: MAPK3 (human) (UniProt P27361)
Test: radiometric filter-binding kinase assay, Kinase HotSpot
Settings: compound 0.5 µM; ATP 10 µM

Chain of MAPK3 (human) (P27361 whole entry, looked up): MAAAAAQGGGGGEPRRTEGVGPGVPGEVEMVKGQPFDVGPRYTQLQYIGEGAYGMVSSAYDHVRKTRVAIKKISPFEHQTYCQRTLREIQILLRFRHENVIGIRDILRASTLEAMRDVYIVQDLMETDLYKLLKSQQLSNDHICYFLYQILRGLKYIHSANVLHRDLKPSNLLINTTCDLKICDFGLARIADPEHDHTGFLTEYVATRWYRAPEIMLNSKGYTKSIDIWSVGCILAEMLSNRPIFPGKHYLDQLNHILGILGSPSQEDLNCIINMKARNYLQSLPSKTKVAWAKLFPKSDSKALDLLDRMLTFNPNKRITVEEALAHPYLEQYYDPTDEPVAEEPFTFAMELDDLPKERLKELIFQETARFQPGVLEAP

Structure (SMILES) | residual activity
COc1cc2ncnc(Nc3ccc(O)c(Br)c3)c2cc1OC | 97%
CCOc1cc2ncnc(Nc3cccc(Br)c3)c2cc1OCC | 113%
N#C/C(=C1/Nc2ccccc2S1)c1ccnc(NCCc2cccnc2)n1 | 99.4%
O=C1NC(=O)c2c1c1c3ccccc3[nH]c1c1[nH]c3cc(Br)ccc3c21 | 108%

Molecular target: CSNK1G3 (human) (UniProt Q9Y6M4)
Test: as above
Settings: compound 0.5 µM; ATP 10 µM

Chain of CSNK1G3 (human) (Q9Y6M4 whole entry, looked up): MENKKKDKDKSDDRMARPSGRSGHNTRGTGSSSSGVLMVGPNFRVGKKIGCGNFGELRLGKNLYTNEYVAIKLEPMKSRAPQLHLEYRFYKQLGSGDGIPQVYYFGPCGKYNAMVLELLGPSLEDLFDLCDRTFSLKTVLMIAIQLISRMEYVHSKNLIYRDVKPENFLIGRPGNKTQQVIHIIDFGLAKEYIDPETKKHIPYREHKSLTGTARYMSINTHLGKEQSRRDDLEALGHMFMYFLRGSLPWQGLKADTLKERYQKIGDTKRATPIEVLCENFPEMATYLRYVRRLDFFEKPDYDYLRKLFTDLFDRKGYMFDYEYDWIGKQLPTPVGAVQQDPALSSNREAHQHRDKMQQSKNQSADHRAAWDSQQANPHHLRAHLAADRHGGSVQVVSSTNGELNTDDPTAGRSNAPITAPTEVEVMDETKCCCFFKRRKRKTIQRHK

Structure (SMILES) | residual activity
COc1cc2ncnc(Nc3ccc(O)c(Br)c3)c2cc1OC | 101%
CCOc1cc2ncnc(Nc3cccc(Br)c3)c2cc1OCC | 98.7%
N#C/C(=C1/Nc2ccccc2S1)c1ccnc(NCCc2cccnc2)n1 | 87.1%
O=C1NC(=O)c2c1c1c3ccccc3[nH]c1c1[nH]c3cc(Br)ccc3c21 | 94.6%

Molecular target: BLK (human) (UniProt P51451)
Test: as above
Settings: compound 0.5 µM; ATP 10 µM

Chain of BLK (human) (P51451 whole entry, looked up): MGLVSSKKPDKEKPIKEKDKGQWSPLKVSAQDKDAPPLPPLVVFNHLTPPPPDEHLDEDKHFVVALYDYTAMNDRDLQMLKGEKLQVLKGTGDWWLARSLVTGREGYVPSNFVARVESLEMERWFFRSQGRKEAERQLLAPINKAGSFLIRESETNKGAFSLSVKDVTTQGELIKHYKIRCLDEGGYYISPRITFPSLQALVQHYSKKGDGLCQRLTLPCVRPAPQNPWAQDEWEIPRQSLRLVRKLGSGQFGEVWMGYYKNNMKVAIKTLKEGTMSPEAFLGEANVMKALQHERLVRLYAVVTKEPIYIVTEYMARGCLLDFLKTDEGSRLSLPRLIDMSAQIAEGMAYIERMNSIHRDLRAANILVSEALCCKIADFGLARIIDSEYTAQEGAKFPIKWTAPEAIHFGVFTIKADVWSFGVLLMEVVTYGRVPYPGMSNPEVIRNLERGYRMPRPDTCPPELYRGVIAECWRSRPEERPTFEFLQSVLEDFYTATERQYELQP

Structure (SMILES) | residual activity
COc1cc2ncnc(Nc3ccc(O)c(Br)c3)c2cc1OC | 83.8%
CCOc1cc2ncnc(Nc3cccc(Br)c3)c2cc1OCC | 74.9%
N#C/C(=C1/Nc2ccccc2S1)c1ccnc(NCCc2cccnc2)n1 | 102%
O=C1NC(=O)c2c1c1c3ccccc3[nH]c1c1[nH]c3cc(Br)ccc3c21 | 83.9%

Molecular target: STK11 (human) (UniProt Q15831)
Test: as above
Settings: compound 0.5 µM; ATP 10 µM

Structure (SMILES) | residual activity
COc1cc2ncnc(Nc3ccc(O)c(Br)c3)c2cc1OC | 103%
CCOc1cc2ncnc(Nc3cccc(Br)c3)c2cc1OCC | 88%
N#C/C(=C1/Nc2ccccc2S1)c1ccnc(NCCc2cccnc2)n1 | 79.4%
O=C1NC(=O)c2c1c1c3ccccc3[nH]c1c1[nH]c3cc(Br)ccc3c21 | 90.2%

Molecular target: DAPK3 (human) (UniProt O43293)
Test: as above
Settings: compound 0.5 µM; ATP 10 µM

Structure (SMILES) | residual activity
COc1cc2ncnc(Nc3ccc(O)c(Br)c3)c2cc1OC | 99.1%
CCOc1cc2ncnc(Nc3cccc(Br)c3)c2cc1OCC | 103%
N#C/C(=C1/Nc2ccccc2S1)c1ccnc(NCCc2cccnc2)n1 | 109%
O=C1NC(=O)c2c1c1c3ccccc3[nH]c1c1[nH]c3cc(Br)ccc3c21 | 62.9%

Molecular target: CDK2 CCNE1 (human) (UniProt P24941+P24864)
Test: as above
Settings: compound 0.5 µM; ATP 10 µM

Structure (SMILES) | residual activity
COc1cc2ncnc(Nc3ccc(O)c(Br)c3)c2cc1OC | 95.7%
CCOc1cc2ncnc(Nc3cccc(Br)c3)c2cc1OCC | 94.4%
N#C/C(=C1/Nc2ccccc2S1)c1ccnc(NCCc2cccnc2)n1 | 82.7%
O=C1NC(=O)c2c1c1c3ccccc3[nH]c1c1[nH]c3cc(Br)ccc3c21 | 74.9%

Molecular target: STK24 (human) (UniProt Q9Y6E0)
Test: as above
Settings: compound 0.5 µM; ATP 10 µM

Structure (SMILES) | residual activity
COc1cc2ncnc(Nc3ccc(O)c(Br)c3)c2cc1OC | 91.7%
CCOc1cc2ncnc(Nc3cccc(Br)c3)c2cc1OCC | 97.6%
N#C/C(=C1/Nc2ccccc2S1)c1ccnc(NCCc2cccnc2)n1 | 95.6%
O=C1NC(=O)c2c1c1c3ccccc3[nH]c1c1[nH]c3cc(Br)ccc3c21 | 80.1%

Molecular target: WEE1 (human) (UniProt P30291)
Test: as above
Settings: compound 0.5 µM; ATP 10 µM

Structure (SMILES) | residual activity
COc1cc2ncnc(Nc3ccc(O)c(Br)c3)c2cc1OC | 92.5%
CCOc1cc2ncnc(Nc3cccc(Br)c3)c2cc1OCC | 97.9%
N#C/C(=C1/Nc2ccccc2S1)c1ccnc(NCCc2cccnc2)n1 | 88.5%
O=C1NC(=O)c2c1c1c3ccccc3[nH]c1c1[nH]c3cc(Br)ccc3c21 | 74.6%

Molecular target: CDK4 CCND3 (human) (UniProt P30281+P11802)
Test: as above
Settings: compound 0.5 µM; ATP 10 µM

Structure (SMILES) | residual activity
COc1cc2ncnc(Nc3ccc(O)c(Br)c3)c2cc1OC | 110%
CCOc1cc2ncnc(Nc3cccc(Br)c3)c2cc1OCC | 97.8%
N#C/C(=C1/Nc2ccccc2S1)c1ccnc(NCCc2cccnc2)n1 | 85.7%
O=C1NC(=O)c2c1c1c3ccccc3[nH]c1c1[nH]c3cc(Br)ccc3c21 | 21.1%

Molecular target: MAP3K3 (human) (UniProt Q99759)
Test: as above
Settings: compound 0.5 µM; ATP 10 µM

Structure (SMILES) | residual activity
COc1cc2ncnc(Nc3ccc(O)c(Br)c3)c2cc1OC | 82%
CCOc1cc2ncnc(Nc3cccc(Br)c3)c2cc1OCC | 92.9%
N#C/C(=C1/Nc2ccccc2S1)c1ccnc(NCCc2cccnc2)n1 | 94.7%
O=C1NC(=O)c2c1c1c3ccccc3[nH]c1c1[nH]c3cc(Br)ccc3c21 | 105%

Molecular target: INSR (human) (UniProt P06213)
Test: as above
Settings: compound 0.5 µM; ATP 10 µM

Structure (SMILES) | residual activity
COc1cc2ncnc(Nc3ccc(O)c(Br)c3)c2cc1OC | 92.4%
CCOc1cc2ncnc(Nc3cccc(Br)c3)c2cc1OCC | 98.7%
N#C/C(=C1/Nc2ccccc2S1)c1ccnc(NCCc2cccnc2)n1 | 100%
O=C1NC(=O)c2c1c1c3ccccc3[nH]c1c1[nH]c3cc(Br)ccc3c21 | 86.4%

Molecular target: PRKD3 (human) (UniProt O94806)
Test: as above
Settings: compound 0.5 µM; ATP 10 µM

Structure (SMILES) | residual activity
COc1cc2ncnc(Nc3ccc(O)c(Br)c3)c2cc1OC | 72.8%
CCOc1cc2ncnc(Nc3cccc(Br)c3)c2cc1OCC | 95.4%
N#C/C(=C1/Nc2ccccc2S1)c1ccnc(NCCc2cccnc2)n1 | 64.7%
O=C1NC(=O)c2c1c1c3ccccc3[nH]c1c1[nH]c3cc(Br)ccc3c21 | 49.5%

Molecular target: WNK3 (human) (UniProt Q9BYP7)
Test: as above
Settings: compound 0.5 µM; ATP 10 µM

Chain of WNK3 (human) (Q9BYP7 whole entry, looked up): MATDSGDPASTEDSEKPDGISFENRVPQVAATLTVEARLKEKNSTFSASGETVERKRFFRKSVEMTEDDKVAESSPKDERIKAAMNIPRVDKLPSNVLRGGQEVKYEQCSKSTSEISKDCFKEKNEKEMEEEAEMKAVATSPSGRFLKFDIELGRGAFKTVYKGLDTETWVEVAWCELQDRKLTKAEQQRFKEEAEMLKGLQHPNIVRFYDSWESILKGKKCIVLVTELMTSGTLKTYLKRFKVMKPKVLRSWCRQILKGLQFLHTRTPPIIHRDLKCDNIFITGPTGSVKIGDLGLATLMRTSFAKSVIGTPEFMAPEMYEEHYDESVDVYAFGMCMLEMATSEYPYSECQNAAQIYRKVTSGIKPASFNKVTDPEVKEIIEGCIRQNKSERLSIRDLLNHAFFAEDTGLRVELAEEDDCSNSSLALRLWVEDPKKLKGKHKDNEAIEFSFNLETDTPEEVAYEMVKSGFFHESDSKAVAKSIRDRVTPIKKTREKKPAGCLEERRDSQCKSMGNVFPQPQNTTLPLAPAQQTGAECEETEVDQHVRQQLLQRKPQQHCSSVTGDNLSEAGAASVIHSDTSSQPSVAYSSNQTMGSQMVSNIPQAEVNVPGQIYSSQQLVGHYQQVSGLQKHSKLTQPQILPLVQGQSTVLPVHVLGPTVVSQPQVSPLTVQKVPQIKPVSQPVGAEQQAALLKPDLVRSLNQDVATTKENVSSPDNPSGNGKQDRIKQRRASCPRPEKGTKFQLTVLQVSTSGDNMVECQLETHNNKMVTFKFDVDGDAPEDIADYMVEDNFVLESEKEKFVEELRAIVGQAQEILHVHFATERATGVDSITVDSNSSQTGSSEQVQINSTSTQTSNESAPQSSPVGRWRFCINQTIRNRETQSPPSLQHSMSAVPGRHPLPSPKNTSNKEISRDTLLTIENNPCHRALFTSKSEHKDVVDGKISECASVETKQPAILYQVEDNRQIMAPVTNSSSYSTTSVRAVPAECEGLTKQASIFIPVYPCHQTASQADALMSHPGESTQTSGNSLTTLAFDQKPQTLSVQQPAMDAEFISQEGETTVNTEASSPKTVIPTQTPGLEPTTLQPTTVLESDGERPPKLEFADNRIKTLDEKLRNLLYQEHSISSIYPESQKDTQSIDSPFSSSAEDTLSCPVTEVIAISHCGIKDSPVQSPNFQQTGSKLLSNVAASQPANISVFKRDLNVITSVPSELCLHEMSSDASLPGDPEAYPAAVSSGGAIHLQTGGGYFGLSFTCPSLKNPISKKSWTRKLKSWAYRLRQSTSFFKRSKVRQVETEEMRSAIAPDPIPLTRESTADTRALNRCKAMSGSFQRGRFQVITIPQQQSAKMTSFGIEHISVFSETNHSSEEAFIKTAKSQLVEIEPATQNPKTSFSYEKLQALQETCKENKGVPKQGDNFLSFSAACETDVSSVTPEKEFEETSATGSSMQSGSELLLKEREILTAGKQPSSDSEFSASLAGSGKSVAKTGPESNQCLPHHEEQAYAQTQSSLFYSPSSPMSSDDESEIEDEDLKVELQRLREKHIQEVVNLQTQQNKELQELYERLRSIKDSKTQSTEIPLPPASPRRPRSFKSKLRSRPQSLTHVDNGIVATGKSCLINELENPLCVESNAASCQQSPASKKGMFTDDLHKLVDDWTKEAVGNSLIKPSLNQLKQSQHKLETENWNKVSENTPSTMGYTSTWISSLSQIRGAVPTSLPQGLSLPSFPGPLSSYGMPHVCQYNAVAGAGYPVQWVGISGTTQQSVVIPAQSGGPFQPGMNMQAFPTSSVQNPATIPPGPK

Structure (SMILES) | residual activity
COc1cc2ncnc(Nc3ccc(O)c(Br)c3)c2cc1OC | 95.7%
CCOc1cc2ncnc(Nc3cccc(Br)c3)c2cc1OCC | 96.5%
N#C/C(=C1/Nc2ccccc2S1)c1ccnc(NCCc2cccnc2)n1 | 81.3%
O=C1NC(=O)c2c1c1c3ccccc3[nH]c1c1[nH]c3cc(Br)ccc3c21 | 92.3%

Molecular target: EPHA8 (human) (UniProt P29322)
Test: as above
Settings: compound 0.5 µM; ATP 10 µM

Structure (SMILES) | residual activity
COc1cc2ncnc(Nc3ccc(O)c(Br)c3)c2cc1OC | 88.3%
CCOc1cc2ncnc(Nc3cccc(Br)c3)c2cc1OCC | 87.3%
N#C/C(=C1/Nc2ccccc2S1)c1ccnc(NCCc2cccnc2)n1 | 98.5%
O=C1NC(=O)c2c1c1c3ccccc3[nH]c1c1[nH]c3cc(Br)ccc3c21 | 102%

Molecular target: NTRK2 (human) (UniProt Q16620)
Test: as above
Settings: compound 0.5 µM; ATP 10 µM

Structure (SMILES) | residual activity
COc1cc2ncnc(Nc3ccc(O)c(Br)c3)c2cc1OC | 94.8%
CCOc1cc2ncnc(Nc3cccc(Br)c3)c2cc1OCC | 105%
N#C/C(=C1/Nc2ccccc2S1)c1ccnc(NCCc2cccnc2)n1 | 93.2%
O=C1NC(=O)c2c1c1c3ccccc3[nH]c1c1[nH]c3cc(Br)ccc3c21 | 68.1%

Molecular target: DYRK1A (human) (UniProt Q13627)
Test: as above
Settings: compound 0.5 µM; ATP 10 µM

Structure (SMILES) | residual activity
COc1cc2ncnc(Nc3ccc(O)c(Br)c3)c2cc1OC | 97.8%
CCOc1cc2ncnc(Nc3cccc(Br)c3)c2cc1OCC | 98.7%
N#C/C(=C1/Nc2ccccc2S1)c1ccnc(NCCc2cccnc2)n1 | 52.7%
O=C1NC(=O)c2c1c1c3ccccc3[nH]c1c1[nH]c3cc(Br)ccc3c21 | 84%

Molecular target: DYRK3 (human) (UniProt O43781)
Test: as above
Settings: compound 0.5 µM; ATP 10 µM

Structure (SMILES) | residual activity
COc1cc2ncnc(Nc3ccc(O)c(Br)c3)c2cc1OC | 95.3%
CCOc1cc2ncnc(Nc3cccc(Br)c3)c2cc1OCC | 98.5%
N#C/C(=C1/Nc2ccccc2S1)c1ccnc(NCCc2cccnc2)n1 | 103%
O=C1NC(=O)c2c1c1c3ccccc3[nH]c1c1[nH]c3cc(Br)ccc3c21 | 94.5%

Molecular target: FGR (human) (UniProt P09769)
Test: as above
Settings: compound 0.5 µM; ATP 10 µM

Chain of FGR (human) (P09769 whole entry, looked up): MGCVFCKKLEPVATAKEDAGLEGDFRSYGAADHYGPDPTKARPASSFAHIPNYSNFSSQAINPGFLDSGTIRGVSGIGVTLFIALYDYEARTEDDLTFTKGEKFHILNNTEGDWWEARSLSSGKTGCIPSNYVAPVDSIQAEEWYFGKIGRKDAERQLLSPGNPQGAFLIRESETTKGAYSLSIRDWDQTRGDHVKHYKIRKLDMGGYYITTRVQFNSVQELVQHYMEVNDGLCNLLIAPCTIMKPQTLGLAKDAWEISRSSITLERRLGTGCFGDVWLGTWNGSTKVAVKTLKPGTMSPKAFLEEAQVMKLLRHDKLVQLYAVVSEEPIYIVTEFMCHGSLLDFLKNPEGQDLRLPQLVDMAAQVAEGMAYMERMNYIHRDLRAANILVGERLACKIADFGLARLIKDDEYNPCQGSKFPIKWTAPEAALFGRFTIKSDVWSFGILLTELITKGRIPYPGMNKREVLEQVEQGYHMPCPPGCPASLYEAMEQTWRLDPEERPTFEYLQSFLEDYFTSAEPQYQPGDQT

Structure (SMILES) | residual activity
COc1cc2ncnc(Nc3ccc(O)c(Br)c3)c2cc1OC | 57.8%
CCOc1cc2ncnc(Nc3cccc(Br)c3)c2cc1OCC | 61.9%
N#C/C(=C1/Nc2ccccc2S1)c1ccnc(NCCc2cccnc2)n1 | 86.1%
O=C1NC(=O)c2c1c1c3ccccc3[nH]c1c1[nH]c3cc(Br)ccc3c21 | 88.8%

Molecular target: NTRK1 (human) (UniProt P04629)
Test: as above
Settings: compound 0.5 µM; ATP 10 µM

Structure (SMILES) | residual activity
COc1cc2ncnc(Nc3ccc(O)c(Br)c3)c2cc1OC | 96.4%
CCOc1cc2ncnc(Nc3cccc(Br)c3)c2cc1OCC | 89.6%
N#C/C(=C1/Nc2ccccc2S1)c1ccnc(NCCc2cccnc2)n1 | 106%
O=C1NC(=O)c2c1c1c3ccccc3[nH]c1c1[nH]c3cc(Br)ccc3c21 | 82.2%

Molecular target: PRKCG (human) (UniProt P05129)
Test: as above
Settings: compound 0.5 µM; ATP 10 µM

Structure (SMILES) | residual activity
COc1cc2ncnc(Nc3ccc(O)c(Br)c3)c2cc1OC | 94.1%
CCOc1cc2ncnc(Nc3cccc(Br)c3)c2cc1OCC | 83%
N#C/C(=C1/Nc2ccccc2S1)c1ccnc(NCCc2cccnc2)n1 | 92.2%
O=C1NC(=O)c2c1c1c3ccccc3[nH]c1c1[nH]c3cc(Br)ccc3c21 | 76.6%

Molecular target: SGK3 (human) (UniProt Q96BR1)
Test: as above
Settings: compound 0.5 µM; ATP 10 µM

Chain of SGK3 (human) (Q96BR1 whole entry, looked up): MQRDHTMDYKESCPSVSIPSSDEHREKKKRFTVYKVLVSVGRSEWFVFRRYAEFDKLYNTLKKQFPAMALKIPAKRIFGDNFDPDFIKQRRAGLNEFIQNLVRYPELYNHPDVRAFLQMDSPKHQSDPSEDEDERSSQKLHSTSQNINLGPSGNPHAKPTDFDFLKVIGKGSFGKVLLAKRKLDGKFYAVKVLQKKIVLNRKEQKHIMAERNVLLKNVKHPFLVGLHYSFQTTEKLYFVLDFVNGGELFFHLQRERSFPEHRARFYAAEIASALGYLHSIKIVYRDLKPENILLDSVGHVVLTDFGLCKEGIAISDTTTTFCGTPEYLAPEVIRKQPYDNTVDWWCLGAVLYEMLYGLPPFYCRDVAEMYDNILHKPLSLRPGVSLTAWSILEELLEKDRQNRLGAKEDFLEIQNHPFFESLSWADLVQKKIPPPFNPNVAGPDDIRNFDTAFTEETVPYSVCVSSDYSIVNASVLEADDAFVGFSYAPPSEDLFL

Structure (SMILES) | residual activity
COc1cc2ncnc(Nc3ccc(O)c(Br)c3)c2cc1OC | 94.5%
CCOc1cc2ncnc(Nc3cccc(Br)c3)c2cc1OCC | 96.7%
N#C/C(=C1/Nc2ccccc2S1)c1ccnc(NCCc2cccnc2)n1 | 107%
O=C1NC(=O)c2c1c1c3ccccc3[nH]c1c1[nH]c3cc(Br)ccc3c21 | 97.2%
